{"source": "patent US20080233561A1", "about": "“Method for Measuring Cytopathic Effect Due to Viral Infection in Cells Using Electric Cell-Substrate Impedance Sensing” (UNIVERSITY OF LOUISVILLE RESEARCH FOUNDATION, INC., priority 2005, published 2008)", "test_system": "PR8 influenza A virus (influenza/A/PR/8/34 virus)", "format": "cell-based", "conditions": "MDCK cells pretreated 1 hour with 20 mM NH4Cl and kept under NH4Cl; […]; approximately 48 hours PI; 4,000 Hz; listed as ammonium chloride (NH4Cl)", "data": [{"molecule": "Cl.N", "note": "[NH4Cl, ammonium chloride]", "values": [{"measurement": "signal resistance (ECIS) of the cell monolayer following influenza inoculation", "value": "the reduction in signal resistance due to influenza infection is abolished"}]}]}
